Test results from patent US11331364B2, “Use for JNK inhibitor molecules for treatment of various diseases” (Xigen Inflammation Ltd., priority 2014, dated 2022).
“And” between values parts separate entries of the source, which are not always exact repeats. Identical values can stand only once. Square brackets hold non-standard residues; d marks the D form. Peptide text beside a SMILES is read from it.

Columns and labels:
[1] = test system: K5.STAT3C mouse model of psoriasis; experiment: K5.STAT3C mouse model of psoriasis, tape stripping, acanthosis; format: in vivo; conditions: 5 mg/kg IP QD D0-D5
Procedure: To this end, two independent experiments are performed, each with at least 15 mice per experiment (5 mice per group). In each experiment, BK5.STAT3C heterozygous transgenic mice (Tg(KRT5-Stat3*A661C*N663C)1Jdg, henceforth referred to as K5.STAT3C mice) were randomly allocated to the following experimental groups 1 and 2, and wild-type littermates were allocated to group 3:
On Day 0, psoriasis is induced by tape striping (12-18 times) the back of the mouse after depilation. To this end, mice were anaesthetized using a Ketamine/Xylazine cocktail (100 mg/kg and 10 mg/kg respectively) intraperitoneally, shaved, depilated and skin injury was applied by 15 gentle strokes of tape stripping. Mice were treated with either vehicle (saline) or XG-104 right before anaesthesia on day 0 and once a day thereafter for 5 days. […]
Animals are weighed once on day 0. […] After termination of the study at day 5, approximately 1 cm^2 skin biopsy (lesions) is collected on the back of each mouse, embedded with Optimal Cutting Temperature (OCT)-containing moulds, frozen on dry ice, sectioned in 6 μm slices using a cryotome and stained with H&E. Epidermal thickness (acanthosis) is histologically measured blinded by two independent experimenters. One slide per mouse and 10 different zones of the sections are measured.

[2] = test system: rat model of kidney bilateral ischemia reperfusion; experiment: Kidney bilateral ischemia reperfusion, tubular histological scores, Sprague-Dawley rats; format: in vivo
Procedure: Male Sprague-Dawley rats weighing 200-250 g at delivery were used (Charles River Laboratories, L'Arbresle, France). Animals were delivered to the laboratory at least 5 days before the experiments during which time they were acclimatized to laboratory conditions. This study included 3 groups of 11-12 rats each, as follow:
The protocol of warm renal ischemia was similar to that previously described (Pechman K R et al., 2009). Briefly, under general anesthesia (pentobarbital; 60 mg/kg, i.p. and atropine; 1 mg/kg, i.p.), both renal pedicles were isolated and clamped for 40 minutes using atraumatic clamps. After this time, clamps were released to start reperfusion. Animals were maintained at 37° C. using a thermo-regulated system (TCAT-2LV Controller, Physitemp Instruments, Clifton, N.J., USA) during the surgery. All the animals were sacrificed 24 hours after the release of both vascular clamps (reperfusion). Sham-operated animals underwent the same surgical procedure without clamping of the kidney vessels.
XG-104 or vehicle (0.9% NaCl) were administered into the tail vein (i.v.) at the dose of 2 mg/kg twenty minutes after the release of the second vascular clamp. Intravenous administrations into the tail vein were performed using the volume of 1 mL/kg.
After sacrifice, kidneys were removed, cleaned from all connective tissue and capsule and weighted on an electronic balance (VWR, France). One kidney was transferred in formalin solution 10% (Sigma Aldrich, France) for at least 24 h and then transferred in ethanol 70% for further histological analysis performed by Histalim (Montpellier, France). Right and left kidneys were randomly chosen. Kidney samples were fixed in 10% formalin during 72 hours, transferred into 70% ethanol, then embedded in paraffin blocks by Histalim (Montpellier, France). One longitudinal section (3 to 5 µm) was made per block. Kidney sections of paraffin embedded tissue were stained by hematoxylin and eosin (H&E). All the slides were digitalized at ×20 magnitude using Nanozoomer 2.0 HT from Hamamatsu (Hamamatsu, Japan). Each tissue section was examined histologically in a blinded manner to determine if tubular changes were present. The severity of each finding was then graded as follows:
Tubular damage score consisted of either degeneration/necrosis, tubular epithelial vacuolation, regeneration (basophil tubules), and tubular cast: […]

hJNK1 = biological target: T1, hJNK1 (Homo sapiens, UniProt P45983); experiment: hJNK1 | IC50; conditions: read-out: hJNK1 | IC50
T1 construct: His; purchased Upstate 14-327
T1 sequence (P45983 whole entry, looked up): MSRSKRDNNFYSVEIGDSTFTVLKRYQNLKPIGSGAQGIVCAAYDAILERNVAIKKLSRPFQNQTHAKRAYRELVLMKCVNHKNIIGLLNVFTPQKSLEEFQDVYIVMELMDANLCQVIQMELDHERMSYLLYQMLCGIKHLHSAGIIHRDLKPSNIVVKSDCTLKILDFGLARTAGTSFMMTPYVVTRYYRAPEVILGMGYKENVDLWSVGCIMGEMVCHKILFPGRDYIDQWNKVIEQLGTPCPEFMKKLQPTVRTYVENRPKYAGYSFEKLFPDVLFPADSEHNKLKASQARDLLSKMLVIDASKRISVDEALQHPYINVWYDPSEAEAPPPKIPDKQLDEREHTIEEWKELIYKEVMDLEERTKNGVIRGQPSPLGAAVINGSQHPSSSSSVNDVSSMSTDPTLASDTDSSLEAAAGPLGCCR

[3] = 2 mg/kg i.v. after reperfusion, 24 hours
[4] = 2 mg/kg i.v. after reperfusion, 24 hours, listed as XG-104

CC(C)C[C@H](NC(=O)[C@H](CC(N)=O)NC(=O)[C@H](CC(C)C)NC(=O)[C@@H](NC(=O)[C@@H](C)NC(=O)[C@@H]1CCCN1C(=O)[C@H](CCCNC(=N)N)NC(=O)[C@@H](CCCCN)NC(=O)[C@@H]1CCCN1C(=O)[C@H](CCCNC(=N)N)NC(=O)[C@@H](CCCNC(=N)N)NC(=O)[C@H](CCCNC(=N)N)NC(=O)[C@H](CCCNC(=N)N)NC(=O)[C@H](CCC(N)=O)NC(=O)[C@@H](CCCNC(=N)N)NC(=O)[C@H](CCCNC(=N)N)NC(=O)[C@H](CCCCN)NC(=O)[C@H](CCCCN)NC(=O)[C@H](N)CCCNC(=N)N)[C@@H](C)O)C(=O)N[C@H](Cc1ccccc1)C(N)=O [SEQ ID NO: 172, rKKRrQRRrRPkRPaTLNLf] (H-[dR]KKR[dR]QRR[dR]RP[dK]RP[dA]TLNL[dF]-NH2; N-terminus assumed)
acanthosis (epidermal thickness) [1]: significantly reduced the acanthosis | parakeratosis [1]: absence of any parakeratosis | animals with degeneration/necrosis score of 1 [2, 3]: 1/11 | total tubular score (mean) [2, 3]: 6.00±1.26 | animals with degeneration/necrosis score of 4 [2, 4]: 1/12 and 1/11 | mean basophilic tubule score [2, 4]: 1.33±0.65 and 1.73±0.47 | mean tubular epithelial degeneration/necrosis score [2, 4]: 2.67±0.65 and 2.18±0.75 | tubular damages ([2]; 2 mg/kg i.v., vs IR/Vehicle): significant beneficial effects on tubular damages | IC50 (hJNK1): 722 nM
